From patent US20240277583A1, “Micellar Mouthwash Composition” (Colgate-Palmolive Company, priority 2022, published 2024) come the findings set out here.

Series [1] can be described thus: Colloid particle (micelle) size by dynamic light scattering. It counts as physicochemical. To be noted: colloid particle diameter. The text has this: Next, the colloid particle (micelle) size in Formulations A and B as well as Elmex mouthwash is examined.
In contrast, the micelle size of Formulation B is around 14.1 nm, close to that of PEG-40 hydrogenated castor oil (16.0 nm). Although the inflection point of the surface tension curve is not obvious in the Elmex mouthwash, dynamic light scattering detects colloid particles with 12.2 nm diameter, which are likely solubilized oil droplets in the mouthwash product. With the smallest particle size (amine fluoride/coco glucoside<amine fluoride<amine fluoride/PEG-40 hydrogenated castor oil), amine fluoride/cocoyl glucoside complex is most mobile and can likely reach smaller spaces that others cannot reach. This feature would likely enhance the delivery of active encapsulated in the micelle core, and also enhance availability of amine fluoride, therefore improving its antibacterial efficacy.

Series [2] can be described thus: Diffusion rate D determined by NMR. It counts as physicochemical.

For `CCCCCCCCCCCCCCCCCCN(CCO)CCCN(CCO)CCO.F.F` [Olaflur, N′-octadecyltrimethylenediamine-N,N,N′-tris(2-ethanol)-dihydrofluoride], the “Micelle size (nm) mean” value in series [1] is on record as 6.6 nm. For the same compound, the “D in individual solution” value in series [2] (ingredient alone in solution) is reported as 4.84 × 10^−6 cm^2/s. In series [2] (ingredient within Formulation A (Olaflur + coco glucoside)), the “D in Formulation A” value is 2.27 × 10^−6 cm^2/s. Besides, the “D in Formulation B” value in series [2] (ingredient within Formulation B (Olaflur + PEG-40 hydrogenated castor oil)) is given as 4.33 × 10^−6 cm^2/s.
